Results reported in US20080145313A1, “Compositions and Methods for the Treatment and Prevention of Neoplastic Disorders” (Genesis Research & Development Corporation Limited, priority 2006, published 2008).

Tested on: target transcript mRNA in A549 cells
Test: Level of mRNA of target transcript in A549 cells by quantitative RT-PCR (Tables 12 and 13)
Format: cell-based, human
Conditions: 24 h post-transfection; for mRNA knockdown of energy and metabolism gene target transcript, 0.1 nM: 0.1 nM siRNA; for mRNA knockdown of energy and metabolism gene target transcript, 1 nM: 1 nM siRNA; for mRNA knockdown of energy and metabolism gene target transcript, 10 nM: 10 nM siRNA
Protocol: A549 cells were transfected as described before with 0.1, 1.0 and 10 nM siRNA as listed in Tables 10 and 11 and the relative mRNA levels quantified 24 h post-transfection. RNA was purified from cells using Trizol® extraction as per the manufacturer's protocol (Invitrogen). cDNA was prepared by digesting approximately 200 ng purified RNA with DNAse I (Invitrogen) for 15 minutes at room temperature, followed by 15 minutes at 65° C. in the presence of 25 mM EDTA. 30 ng random primers were added and incubated for 10 minutes at 65° C., 1 minute on ice; Superscript® III polymerase (Invitrogen) was added in presence of 5 nM DTT (Invitrogen) and 1 mM deoxyribonucleotides (Invitrogen), and the reaction incubated at 25° C. for 5 minutes, followed by an hour at 50° C. cDNA was diluted 1:3 in 10 mM Tris pH 7.0, and quantitative RT-PCR carried out on an ABI Prism 7900HT (Applied Biosciences, Inc., Foster City, Calif.) using FastStart TaqMan SYBRGreen (Roche, Basel, Switzerland) or Platinum SYBR Green (Invitrogen) and 360 nM of the primers specific for gene targets and housekeeping genes HPRT and Lamin. Reduction in target mRNA levels following siRNA transfection are given in Tables 12 and 13, together with the gene specific primer sequences. Primer sequences used for the housekeeping genes HPRT and Lamin are given in SEQ ID NO: 4885-4888.

Substance | mRNA knockdown of energy and metabolism gene target transcript, 0.1 nM | mRNA knockdown of energy and metabolism gene target transcript, 1 nM | mRNA knockdown of energy and metabolism gene target transcript, 10 nM
3563 (ATGCGGCTACGGATGTTGGGATCATTATTA; chemistry not given here) [compound 3563] | ++ (70-90% mRNA knockdown) | +++ (>90% mRNA knockdown) | 
3597 (CAACAGGAAGATCCTGCTCATCAG; chemistry not given here) [compound 3597] | + (50-70% mRNA knockdown) | ++ (70-90% mRNA knockdown) | 
3558 (GCTACGGATGTTGGGATCATTATTA; chemistry not given here) [compound 3558] | − (<50% mRNA knockdown) | ++ (70-90% mRNA knockdown) | 
1689 (GCCAACAGGATCTTCGGCCCCATCTG; chemistry not given here) [compound 1689] | − (<50% mRNA knockdown) | ++ (70-90% mRNA knockdown) | 
3552 (GAAGGCAACTACCGCGAGCTGCGCTGGTT; chemistry not given here) [compound 3552] | + (50-70% mRNA knockdown) | ++ (70-90% mRNA knockdown) | 
3555 (ACGGATGTTGGGATCATTATTA; chemistry not given here) [compound 3555] | ++ (70-90% mRNA knockdown) | ++ (70-90% mRNA knockdown) | 
3557 (CTACGGATGTTGGGATCATTATTA; chemistry not given here) [compound 3557] | ++ (70-90% mRNA knockdown) | ++ (70-90% mRNA knockdown) | 
3594 (CAGGAAGATCCTGCTCATCAG; chemistry not given here) [compound 3594] | − (<50% mRNA knockdown) | + (50-70% mRNA knockdown) | 
3592 (TGCCAAAAACAGAGGAGCAAGATACAGGC; chemistry not given here) [compound 3592] | − (<50% mRNA knockdown) | + (50-70% mRNA knockdown) | 
3559 (GGCTACGGATGTTGGGATCATTATTA; chemistry not given here) [compound 3559] | ++ (70-90% mRNA knockdown) | ++ (70-90% mRNA knockdown) | 
3564 (GCAAGAACGGTGGGATTTACT; chemistry not given here) [compound 3564] | ++ (70-90% mRNA knockdown) | +++ (>90% mRNA knockdown) | 
3554 (CGGATGTTGGGATCATTATTA; chemistry not given here) [compound 3554] | ++ (70-90% mRNA knockdown) | ++ (70-90% mRNA knockdown) | 
1686 (AACAGGATCTTCGGCCCCATCTG; chemistry not given here) [compound 1686] | − (<50% mRNA knockdown) | − (<50% mRNA knockdown) | 
3586 (AAACAGAGGAGCAAGATACAGGC; chemistry not given here) [compound 3586] | ++ (70-90% mRNA knockdown) | +++ (>90% mRNA knockdown) | 
3536 (AAGGGTAGGAGCCCTACACTAGG; chemistry not given here) [compound 3536] | ++ (70-90% mRNA knockdown) | +++ (>90% mRNA knockdown) | +++ (>90% mRNA knockdown)
3574 (GCGGTTTTTCTCCAAGTACTC; chemistry not given here) [compound 3574] | ++ (70-90% mRNA knockdown) | +++ (>90% mRNA knockdown) | 
3542 (GGAGCCAAGGGTAGGAGCCCTACACTAGG; chemistry not given here) [compound 3542] | + (50-70% mRNA knockdown) | ++ (70-90% mRNA knockdown) | 
1693 (ATTTGCCAACAGGATCTTCGGCCCCATCTG; chemistry not given here) [compound 1693] | − (<50% mRNA knockdown) | − (<50% mRNA knockdown) | 
3561 (GCGGCTACGGATGTTGGGATCATTATTA; chemistry not given here) [compound 3561] | + (50-70% mRNA knockdown) | ++ (70-90% mRNA knockdown) | 
3579 (GTGAAGCGGTTTTTCTCCAAGTACTC; chemistry not given here) [compound 3579] | ++ (70-90% mRNA knockdown) | +++ (>90% mRNA knockdown) | 
1698 (AGAACGTGAAGCTCCCTGACGCCTA; chemistry not given here) [compound 1698] | + (50-70% mRNA knockdown) | + (50-70% mRNA knockdown) | 
3545 (ACTACCGCGAGCTGCGCTGGTT; chemistry not given here) [compound 3545] | ++ (70-90% mRNA knockdown) | ++ (70-90% mRNA knockdown) | +++ (>90% mRNA knockdown)
3577 (GAAGCGGTTTTTCTCCAAGTACTC; chemistry not given here) [compound 3577] | ++ (70-90% mRNA knockdown) | +++ (>90% mRNA knockdown) | 
3562 (TGCGGCTACGGATGTTGGGATCATTATTA; chemistry not given here) [compound 3562] | ++ (70-90% mRNA knockdown) | +++ (>90% mRNA knockdown) | 
3595 (ACAGGAAGATCCTGCTCATCAG; chemistry not given here) [compound 3595] | + (50-70% mRNA knockdown) | ++ (70-90% mRNA knockdown) | 
1694 (CGTGAAGCTCCCTGACGCCTA; chemistry not given here) [compound 1694] | − (<50% mRNA knockdown) | − (<50% mRNA knockdown) | 
3538 (CCAAGGGTAGGAGCCCTACACTAGG; chemistry not given here) [compound 3538] | ++ (70-90% mRNA knockdown) | ++ (70-90% mRNA knockdown) | +++ (>90% mRNA knockdown)
1687 (CAACAGGATCTTCGGCCCCATCTG; chemistry not given here) [compound 1687] | − (<50% mRNA knockdown) | − (<50% mRNA knockdown) | 
